The source of these data is patent US20240239813A1, “KRAS INHIBITORS AND PHARMACEUTICAL USES THEREOF” (RISEN (SUZHOU) PHARMA TECH CO., LTD., priority 2022, published 2024).

One data set concerns NCI-H358. In words: Cell proliferation assay (CellTiterGlo), NCI-H358. Format: cell-based. The conditions noted are these: Homo sapiens, NCI-H358, 72 hours. Here is the method:
(§1) A cell proliferation assay was used to evaluate inhibition by exemplary compounds. Proliferation assays used human tissue derived cancer cell lines, for example, AsPC-1 (Cobioer, CBP60546), GP2D (Cobioer, CBP60683), NCI-H358 (Cobioer, CBP60544), NCI-H727 (Cobioer, CBP60182), MKN-1 (Cobioer, CBP60486), HCT116 (ATCC, CCL-247), and HT-29 (Cobioer, CBP60011). Signal reflecting cell proliferation was detected with the CellTiterGlo kit (Promega, G7573).
(§2) Cells were cultured in the growth phase and 3×10^3 cells per well were plated in a 96-well plate (Greiner, 655090). Cells were incubated 24 hours at 37° C. and 5% carbon dioxide in a humidity chamber. Serially diluted exemplary compounds were added to the plate which was then incubated for another 72 hours. Plates were brought to room temperature and an equal volume of CellTiterGlo reagent was added. After 10 minutes incubation at room temperature to stabilize the signal, the luminescent signal was measured on the VICTOR Nivo multimode plate reader according to the manufacturer's instructions. The signal was converted to percent inhibition using the following formula: […]
(§3) (where the “Maximum Signal” are wells containing DMSO without inhibitor; the “Minimum Signal” are signal of wells recorded at Day 0 prior to commencement of the experiment; the “Test compound signal” are wells containing inhibitor at established concentrations).
(§4) IC50 was determined by fitting percent inhibition at each inhibitor concentration to the four-parameter nonlinear logistic equation using GraphPad Prism. IC50 (nM) values of selected compounds are depicted in Table 4. “-”: means without measuring; and “ND” means not detected.
(In general: ATP-based viability assays read luminescence as a measure of living cells.)

A further data set deals with NCI-H727. In words: Cell proliferation assay (CellTiterGlo), NCI-H727. Format: cell-based. As to conditions: Homo sapiens, NCI-H727, 72 hours. Here is the method: as §1, §2, §3, §4
The next data set has as its system MKN-1. In words: Cell proliferation assay (CellTiterGlo), MKN-1. In kind it is cell-based. The conditions noted are these: Homo sapiens, MKN-1, 72 hours. Here is the method: as §1, §2, §3, §4
The test system of a further data set is GP2D. As to the kind of experiment: Cell proliferation assay (CellTiterGlo), GP2D. The conditions noted are these: Homo sapiens, 72 hours. Format: cell-based. How it is done: as §1, §2, §3, §4
Data set [1] addresses His-tagged Human KRAS^G12D (Homo sapiens (Human), UniProt P01116, G12D). As to the kind of experiment: HTRF KRAS G12D GTP binding assay. The conditions noted are these: displacement of GTP-Red tracer. How it is done:
KRAS^G12D was used in this assay.
The ability of a test compound to bind to KRAS^G12D was measured by using an HTRF KRAS^G12D GTP Binding Kit (Cisbio, 63ADK000CB27PEG). […] 5 μL of compound solution was added to each well after serial dilution, followed by addition of 5 μL of GDP (50 nM) solution. After 30 minutes incubation at room temperature, 1×6His Eu cryptate antibody solution and GTP-Red tracer were added to the plate, then incubated for another 30 minutes. The HTRF signal was measured with a VICTOR Nivo multimode plate reader according to the manufacturer's instructions. The percent inhibition was calculated using the following formula: […]
(where the “Maximum Signal” are wells containing DMSO without inhibitor; the “Minimum Signal” are wells containing reference inhibitory component (GDP); the “Test compound signal” are wells containing test compound (inhibitor) at established concentrations).
IC50 was determined by fitting percent inhibition at each inhibitor concentration to the four-parameter nonlinear logistic equation using GraphPad Prism.
(TR-FRET usually uses a lanthanide donor and a delayed reading to cut background.)

Data set [2] in a line: Microsomal stability assay, human liver microsomes. Format: in vitro ADME. As to conditions: pooled human liver microsomes, 0.5 mg/mL protein. Here is the method:
(§5) Test results from this assay were used to determine the metabolic liabilities of test compounds and allow focus on the improvement of drug candidates through structure-activity relationships. Pooled mouse/rat/human liver microsomes were used for this assay
(§6) In vitro mouse (CD-1, BioIVT)/rat (SD, RILD)/human (Corning) liver microsomal suspensions at 0.5 mg/mL protein and 1.3 mM NADPH, 3.3 mM MgCl2 were pre incubated at 37° C. for 3 mins prior to addition of 0.1 mM test compound solution to give a final incubation concentration of 1 μM. Samples were incubated for 0, 15, 30, 60 minutes at 37° C. on a shaker (the positive control substance was cultured for 0 or 60 minutes). At the end of each incubation time both incubated and control samples were quenched with ice-cold stop solution containing internal standard. All samples were mixed by a plate shaker at 800 rpm for 5 minutes, then centrifuged at 4100 rpm for 15 minutes at 4° C. to precipitate protein. Supernatant was transferred to another 96-well plate, dilution solution was added to each supernatant well, and then each bioanalysis plate was sealed. The samples were mixed by plate shaker at 800 rpm for 5 minutes and then centrifuged at 4° C., 4100 rpm for 5 minutes. All samples were stored at 4° C. before LC-MS/MS analysis.
(§7) The peak area ratio was converted to the remaining percentages (% Remaining) using the following formula: […]
(§8) where % Remaining is the compound ratio (compound peak area/internal standard peak area) as a percentage of the 0 minute time point.
(§9) The ln remaining percent of test articles were plotted against time and the gradient of the line determined; the gradient was converted to elimination rate constant by using the following formula:
(§10) Elimination rate constant(ke)=−gradient
(§11) Half time (T1/2) was determined using following formula: […]
(§12) Hepatic intrinsic clearance (CLint(liver)) was determined by using the following formulas: […]
(§13) The Intrinsic clearance of selected compounds is depicted in Table 6.

A short description of data set [3]: Microsomal stability assay, rat liver microsomes. Format: in vitro ADME. As to conditions: SD, pooled rat liver microsomes, 0.5 mg/mL protein. How it is done:
as §5, §6, §7, §8, §9, §10, §11, §12, §13
(In general: Microsomes from liver hold many membrane-bound enzymes, among them those of drug oxidation.)

Data set [4] is described as follows: Microsomal stability assay, mouse liver microsomes. Format: in vitro ADME. The conditions noted are these: CD-1, pooled mouse liver microsomes, 0.5 mg/mL protein. How it is done:
as §5, §6, §7, §8, §9, §10, §11, §12, §13

For a further data set, the system named is AsPC-1. As to the kind of experiment: Cell proliferation assay (CellTiterGlo), AsPC-1. Format: cell-based. As to conditions: Homo sapiens, ASPC1, AsPC-1, 72 hours. Here is the method:
as §1, §2, §3, §4

Chain of His-tagged Human KRAS^G12D (P01116-2 other isoform, or with tags, fused parts or gaps G12D): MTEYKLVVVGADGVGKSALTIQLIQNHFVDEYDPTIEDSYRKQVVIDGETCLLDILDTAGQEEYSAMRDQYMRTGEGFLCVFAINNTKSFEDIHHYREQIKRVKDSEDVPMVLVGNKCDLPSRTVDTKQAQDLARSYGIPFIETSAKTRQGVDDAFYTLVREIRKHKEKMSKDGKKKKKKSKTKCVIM

In the case of `CCc1c(F)ccc2cc(O)cc(-c3ncc4c(N5CC[C@@H](O)C5)nc(OC[C@@]56CCCN5C[C@H](F)C6)nc4c3F)c12` [Compound 1], the half-inhibitory concentration (IC50) is 3210 nM with NCI-H358; 1870 nM in the data set with NCI-H727; 4090 nM in the data set on MKN-1; 4220 nM in the data set with GP2D; 261 nM in data set [1].

Consider `CCc1c(F)ccc2cc(O)cc(-c3ncc4c(N5C[C@H](O)C[C@H]5CO)nc(OC[C@@]56CCCN5C[C@H](F)C6)nc4c3F)c12` [Compound 2], for which the IC50 with NCI-H358 was 6320 nM; in the data set on NCI-H727, over 10000 nM; with MKN-1 it was over 10000 nM; in the data set on GP2D it was 1320 nM; in data set [1], 185 nM.

Take `CCc1c(F)ccc2cc(O)cc(-c3ncc4c(N5CCCC6(CCO6)C5)nc(OCC5(CN6CCOCC6)CC5)nc4c3F)c12` (stereo not drawn) [Compound 2a]: the CLint scaled at 1 μM in [2] is 402 mL/min/kg; in [3] it was 887 mL/min/kg; in [4], 2630 mL/min/kg. The compound also yielded a half-inhibitory concentration (IC50) in data set [1] of 18.8 nM.

As for `CCc1c(F)ccc2cc(O)cc(-c3ncc4c(N5CCC[C@H]5CO)nc(OC[C@@]56CCCN5C[C@H](F)C6)nc4c3F)c12` [Compound 3], the IC50 in the data set on NCI-H358 was 1660 nM; in the data set on NCI-H727, 1080 nM; with MKN-1, 1780 nM; in the data set on GP2D, 1570 nM.

With `CCc1c(F)ccc2cc(O)cc(-c3ncc4c(N5C[C@H](O)C[C@H]5C(=O)OC)nc(OC[C@@]56CCCN5C[C@H](F)C6)nc4c3F)c12` [Compound 4], the IC50 with NCI-H358 was 6600 nM; in the data set on NCI-H727, 4040 nM; with MKN-1, 7880 nM; with GP2D, 1630 nM; in data set [1], over 1000 nM.

Turning to `CCc1c(F)ccc2cc(O)cc(-c3ncc4c(N5CCC[C@H]5C(N)=O)nc(OC[C@@]56CCCN5C[C@H](F)C6)nc4c3F)c12` [Compound 6], the IC50 with NCI-H358 was over 10000 nM; in the data set with NCI-H727 it was over 10000 nM; in the data set with MKN-1, over 10000 nM; in data set [1] it was 1390 nM.

As for `CCc1c(F)ccc2cc(O)cc(-c3ncc4c(N5CCC[C@H]5C(=O)OC)nc(OC[C@@]56CCCN5C[C@H](F)C6)nc4c3F)c12` [Compound 7], the IC50 was 7980 nM with NCI-H358, 5310 nM in the data set on NCI-H727, over 10000 nM in the data set with MKN-1 and over 1000 nM in [1].

In the case of `CCc1c(F)ccc2cc(O)cc(-c3ncc4c(N5CCC[C@]6(CCO6)C5)nc(OCC5(CN6CCCCC6)CC5)nc4c3F)c12` [Compound 9a], the IC50 worked out at 18.5 nM with NCI-H358; 15 nM in the data set on NCI-H727; 1.6 nM with GP2D; 20.1 nM with AsPC-1; 7.9 nM in data set [1].

Regarding `CCc1c(F)ccc2cc(O)cc(-c3ncc4c(N5CCC[C@]6(CCO6)C5)nc(OCC5(CN6CCCC6)CC5)nc4c3F)c12` [Compound 10a], the IC50 is 18.7 nM in the data set on NCI-H358; 17 nM in the data set with NCI-H727; 1.8 nM with GP2D; 16 nM in the data set on AsPC-1; 6.9 nM in data set [1]. The CLint scaled at 1 μM in [2] was 42.5 mL/min/kg; in data set [3] it was 46.4 mL/min/kg; in [4] it was 671 mL/min/kg.

In the case of `CCc1c(F)ccc2cc(O)cc(-c3ccc4c(N5CCC[C@]6(CCO6)C5)nc(OCC5(CN(C)C)CC5)nc4c3F)c12` [Compound 15a], the CLint scaled at 1 μM in data set [2] was 31.8 mL/min/kg; in [3], 52.9 mL/min/kg; in data set [4], 371 mL/min/kg. The same compound registered an IC50 in data set [1] of 19.6 nM.

With `CCc1c(F)ccc2cc(O)cc(-c3ncc4c(N5CCC[C@]6(CCO6)C5)nc(OCC(C)(C)CN(C)C)nc4c3F)c12` [Compound 26a], the IC50 came out at 98.5 nM in the data set on NCI-H358; 37.4 nM in the data set with NCI-H727; 4.5 nM in the data set on GP2D; 30.8 nM in the data set on AsPC-1; 13.3 nM in [1].

As to `CCc1c(F)ccc2cc(O)cc(-c3ncc4c(N5CCC[C@]6(CCO6)C5)nc(OCC5(CN(CC)CC)CC5)nc4c3F)c12` [Compound 27a], the IC50 worked out at 40.5 nM in the data set with NCI-H358; 24.8 nM with NCI-H727; 3.07 nM with GP2D; 32 nM with AsPC-1; 12.7 nM in data set [1].

`CCc1c(F)ccc2cc(O)cc(-c3ncc4c(N5CCC[C@]6(CCO6)C5)nc(OCC5(CN6CCC(F)CC6)CC5)nc4c3F)c12` [Compound 29a]: the IC50 in the data set on NCI-H358 was determined as 25.1 nM; in the data set with NCI-H727, 14.7 nM; in the data set with GP2D it was 2.3 nM; with AsPC-1 it was 25 nM; in [1] it was 4.3 nM. Also, the CLint scaled at 1 μM in data set [2] came out at 181 mL/min/kg; in data set [3], 410 mL/min/kg; in [4], 1040 mL/min/kg.

As to `CCc1c(F)ccc2cc(O)cc(-c3ncc4c(N5CCC[C@]6(CCO6)C5)nc(OCC5(CN(C)C)CC5)nc4c3F)c12` [Compound 34a], the IC50 in the data set on NCI-H358 is 23.7 nM; in the data set on NCI-H727, 13.7 nM; in the data set with GP2D, 1.4 nM; in the data set on AsPC-1, 21.6 nM; in data set [1], 3.1 nM. Further, the CLint scaled at 1 μM was 26.3 mL/min/kg in [2], 29.2 mL/min/kg in data set [3] and 255 mL/min/kg in [4].

Turning to `CCc1c(F)ccc2cc(O)cc(-c3ncc4c(N5CCC[C@@]6(CCO6)C5)nc(OC[C@@]56CCCN5C[C@H](F)C6)nc4c3F)c12` [Compound 67], the CLint scaled at 1 μM in [2] came to 83.5 mL/min/kg; in [3] it was 288 mL/min/kg; in [4], 1280 mL/min/kg.

As for `CCc1c(F)ccc2cc(O)cc(-c3ncc4c(N5CCC[C@]6(CCO6)C5)nc(OC[C@@]56CCCN5C[C@H](F)C6)nc4c3F)c12` [Compound 68], the CLint scaled at 1 μM in [2] was determined as 124 mL/min/kg; in data set [3], 311 mL/min/kg; in [4], 2270 mL/min/kg.

In the case of `CCc1c(F)ccc2cc(O)cc(-c3ncc4c(N5CCCC6(CCO6)C5)nc(OCC5(CN(C)C)CC5)nc4c3F)c12` (stereo not drawn) [Compound 73], the CLint scaled at 1 μM was 32.4 mL/min/kg in data set [2], 51.1 mL/min/kg in data set [3] and 361 mL/min/kg in data set [4]. This compound also registered an IC50 in data set [1] of 10.7 nM.

For orientation: IC50 means the concentration that gives 50% inhibition. Broadly, the CLint scaled is a measure of how fast metabolising enzymes remove a compound, apart from limits set by blood flow.
